Reference: publication PMC4434572, “Identification of novel drugs to target dormant micrometastases” (BMC Cancer, 2015)
Where two headings read alike, the source gives them in different places.

Tested on: cancer cells on SISgel or plastic
Assay: Activity of leads and analogs on cancer cells grown on plastic vs SISgel (cell line not stated)
Assay type: cell-based
Conditions: for SR: ratio IC50-p/IC50-S; for Hit: YES/NO
Experimental: The NCI library is no longer available in the form used here, but how it was constructed is described (http://dtp.nci.nih.gov/branches/dscb/diversity_explanation.html). The ChemBridge library is a subset (Set Code NM1024) of the full 50,000 compound library (http://www.chembridge.com/screening_libraries/diversity_libraries/). Compounds were diluted to 100 μM before use. SISgel was prepared as described previously from powdered porcine small intestine submucosa obtained from Cook Biotech (W. Lafayette, IN). It is a natural product that is used extensively in tissue engineering as a bioscaffold. J82 bladder cancer cells and other cell lines were obtained from the ATCC (Bethesda, MD). […] Efficacy in vitro was assessed by plating 30,000 cells in 50 μL of high glucose DMEM with penicillin-streptomycin and 10 % fetal calf serum on SISgel in a 96-well plate containing 50 μL of gelled SISgel per well. Cells were allowed to attach and assume the SISgel phenotype for 48 h. A matching plate without SISgel was prepared 24 h later by pipetting 3,000 cells in 100 μL of high glucose DMEM with penicillin-streptomycin and 10 % fetal calf serum into each well of 96 well plate. The cells were allowed to attach and grow for 24 h. […] The cells were exposed to drug in fresh medium for 48 h, at which time the cell number was determined using the CFDA-AM cellular esterase proliferation assay (cat. #C1354, Life Technologies). For screening the results are reported as the ratio of cell count of cells on the plastic surface to the cell count on SISgel. An initial difference of 1.5 fold identified potential hits. All potential hits were confirmed in triplicate. […] Data were analyzed using nonlinear regression to a sigmoid curve with Prism 4 (GraphPad Software, Inc., LaJolla, CA). […]

[1] = cells on SISgel, read-out: IC50-S
[2] = cells on plastic, read-out: IC50-p

Row | Molecule | IC50 [1] | IC50 [2] | SR | Hit | IC50 (read-out: IC50-S) | IC50 (read-out: IC50-p)
1 | Nc1cc(S(=O)(=O)[O-])cc2cc(S(=O)(=O)[O-])c(N=Nc3cc([N+](=O)[O-])ccc3O)c(O)c12.[Na+].[Na+] [Palatine Chrome Green] | 70 µM | 74 µM | 1.1 |  |  | 
2 | O=S(=O)(O)c1ccc2c(N=Nc3c(O)c(S(=O)(=O)O)cc4cc(S(=O)(=O)O)ccc34)c(O)c(S(=O)(=O)O)cc2c1 [2-2-dihydroxy-1-1-azo-naphthalene-3-3-6] | 111 µM | 213 µM | 1.9 |  |  | 
3 | Nc1c(N=Nc2cccc([N+](=O)[O-])c2)c(S(=O)(=O)[O-])cc2cc(S(=O)(=O)[O-])c(N=Nc3ccccc3)c(O)c12.[Na+].[Na+] [Acid Blue 29] | 122 µM | 212 µM | 1.7 |  |  | 
4 | Cc1nc(N=Nc2ccc(S(=O)(=O)O)cc2S(=O)(=O)O)c(COP(=O)(O)O)c(C=O)c1O [PPADS] | 293 µM | 419 µM | 1.4 |  |  | 
5 | CCOc1ccc(Nc2ccc(C(=C3C=CC(=[N+](CC)Cc4cccc(S(=O)(=O)[O-])c4)C=C3C)c3ccc(N(CC)Cc4cccc(S(=O)(=O)[O-])c4)cc3C)cc2)cc1.[Na+] [Comassie Brilliant Blue] | 125 µM | 201 µM | 1.6 |  |  | 
6 | O=S(=O)([O-])c1ccc2c(N=Nc3c(O)cc(S(=O)(=O)[O-])c4ccccc34)c(O)c(S(=O)(=O)[O-])cc2c1.[Na+].[Na+].[Na+] [HydroxyNapthol Blue] | 64 µM | 135 µM | 2.1 | YES |  | 
7 | Cc1ccc(N=Nc2c(O)c(S(=O)(=O)[O-])cc3cc(S(=O)(=O)[O-])ccc23)c(C)c1.[Na+].[Na+] [Acid Red 26] | 604 µM | 154 µM | 0.26 |  |  | 
8 | O=S(=O)([O-])c1cc(S(=O)(=O)[O-])c2c(N=Nc3ccc(S(=O)(=O)[O-])c4ccccc34)c(O)c(S(=O)(=O)[O-])cc2c1.[Na+].[Na+].[Na+].[Na+] [Ponceau 6R] | 107 µM | 124 µM | 1.2 |  |  | 
9 | O=S(=O)(O)c1cc2cc(S(=O)(=O)O)c(N=Nc3ccccc3[As](=O)(O)O)c(O)c2c(O)c1N=Nc1ccccc1[As](=O)(O)O [Arsenazo III] | 34 µM | 47 µM | 1.4 |  |  | 
10 | CCN(CC)c1ccc(C(=C2C=CC(=[N+](CC)CC)C=C2)c2ccc(S(=O)(=O)[O-])cc2S(=O)(=O)[O-])cc1.[Na+] [Acid Blue 1] | 194 µM | 318 µM | 1.6 |  |  | 
11 | nitrazine Yellow | 33 µM | 65 µM | 2.0 | YES |  | 
12 | O=S(=O)(O)c1cc(O)c2c(N=Nc3c(S(=O)(=O)O)cc4cc(S(=O)(=O)O)cc(N=Nc5c(S(=O)(=O)O)cc6cc(S(=O)(=O)O)cc(O)c6c5O)c4c3O)cc(S(=O)(=O)O)cc2c1 [Calichrome] | 375 µM | 464 µM | 1.2 |  |  | 
13 | CCN(Cc1cccc(S(=O)(=O)[O-])c1)c1ccc(C(=C2C=CC(=[N+](CC)Cc3cccc(S(=O)(=O)[O-])c3)C=C2)c2ccccc2Cl)cc1.[Na+] [Alizarin Green] | 621 µM | 414 µM | 0.67 |  |  | 
14 | O=S(=O)([O-])c1cc(Cl)cc(N=Nc2ccc3c(S(=O)(=O)[O-])cccc3c2O)c1O.[Na+].[Na+] [Mordant Blue 9] | 176 µM | 323 µM | 1.8 |  |  | 
15 | CCN(Cc1cccc(S(=O)(=O)[O-])c1)c1ccc(C(=C2C=CC(=[N+](CC)Cc3cccc(S(=O)(=O)[O-])c3)C=C2)c2ccc(S(=O)(=O)[O-])cc2)cc1.[Na+].[Na+] [Light Green SF Yellowish] | 315 µM | 631 µM | 2 |  |  | 
16 | CCN(Cc1cccc(S(=O)(=O)[O-])c1)c1ccc(C(=C2C=CC(=[N+](CC)Cc3cccc(S(=O)(=O)[O-])c3)C=C2)c2ccccc2)cc1.[Na+] [Acid Green 3] | 666 µM | 492 µM | 0.74 |  |  | 
17 | O=S(=O)([O-])c1cc(O)c2c(O)c(N=Nc3ccccc3)c(S(=O)(=O)[O-])cc2c1.[Na+].[Na+] [Chromotrope 2R] | 94 µM | 92 µM | 0.98 |  |  | 
18 | Cc1cc(C)c(S(=O)(=O)[O-])cc1N=Nc1cc(S(=O)(=O)[O-])c2ccccc2c1O.[Na+].[Na+] [Ponceau SX] | 54.1 µM | 208 µM | 3.8 | YES |  | 
19 | Cn1c(=O)c2[nH]c(-c3ccc(S(=O)(=O)O)cc3)nc2n(C)c1=O.O [8-(p-Sulfophenyl)theophylline hydrate] |  |  | 2.5 |  | 140 µM | 346 µM

Further lines, with some results ahead:

Row | IC50 [1] | IC50 [2] | Molecule | SR | Hit | IC50 (read-out: IC50-S) | IC50 (read-out: IC50-p)
20 | 40 µM | 71 µM | O=[N+]([O-])c1ccc(N=Nc2c(S(=O)(=O)[O-])cc3cc(S(=O)(=O)[O-])cc(O)c3c2O)cc1.[Na+].[Na+] [Chromotrope 2B] | 1.8 | YES |  | 
21 | 27 µM | 43 µM | O=S(=O)([O-])c1cc(S(=O)(=O)[O-])c2c(N=Nc3ccc(S(=O)(=O)[O-])c4ccccc34)c(O)ccc2c1.[Na+].[Na+].[Na+] [New Coccine] | 1.6 | YES |  | 
22 | 19 µM | 38 µM | O=S(=O)([O-])c1ccc(N=Nc2c(S(=O)(=O)[O-])cc3cc(S(=O)(=O)[O-])cc(O)c3c2O)cc1.[Na+].[Na+].[Na+] [Sulfanilic Acid Azochromotrop] | 2.0 | YES |  | 
23 | 21 µM | 23 µM | O=S(=O)(O)c1ccc2c(O)c(N=Nc3cccc4ccccc34)c(S(=O)(=O)O)cc2c1.[Na+] [Acid Dye (Azo Red)] | 1 |  |  | 
24 | 15 µM | 38 µM | Cc1ccc(N=Nc2c(O)c(S(=O)(=O)[O-])cc3cc(S(=O)(=O)[O-])ccc23)c(C)c1.[Na+].[Na+] [Ponceau Xylidine] | 2.6 | YES |  | 
25 | 36 µM | 159 µM | Cc1cc(-c2ccc(/N=N/c3c(S(=O)(=O)O)cc4cc(S(=O)(=O)O)cc(N)c4c3O)c(C)c2)ccc1/N=N/c1c(S(=O)(=O)O)cc2cc(S(=O)(=O)O)cc(N)c2c1O [Trypan Blue] | 4.5 | YES |  | 
26 | 13 µM | 33 µM | CC(=O)Nc1cc(S(=O)(=O)[O-])cc2cc(S(=O)(=O)[O-])c(N=Nc3ccccc3)c(O)c12.[Na+].[Na+] [Acid Red 1] | 2.6 | YES |  | 
27 | 45 µM | 106 µM | Cc1ccc(NC(=O)c2cc3ccccc3c(N=Nc3cc(S(=O)(=O)[O-])ccc3O)c2O)c(C)c1.[Na+] [Xylidyl Blue 1] | 2.4 | YES |  | 
28 | 24 µM | 53 µM | COc1ccccc1N=Nc1c(S(=O)(=O)[O-])cc2cc(S(=O)(=O)[O-])cc(NC(C)=O)c2c1O.[Na+].[Na+] [Pontacyl Carmine 2B] | 2.2 | YES |  | 
29 | 22 µM | 26 µM | O=[N+]([O-])c1ccc(N=Nc2c(S(=O)(=O)[O-])cc3cc(S(=O)(=O)[O-])cc(O)c3c2O)cc1.[Na+].[Na+] [Acid Red 60 Chromotrope 2B] | 1.2 |  |  | 
30 | 34 µM | 57 µM | O=S(=O)([O-])c1ccccc1N=Nc1c(S(=O)(=O)[O-])cc2cc(S(=O)(=O)[O-])c(N=Nc3ccccc3S(=O)(=O)[O-])c(O)c2c1O.[Na+].[Na+].[Na+].[Na+] [Sulfanazo II] | 2 | YES |  | 
